Consider 20 compounds from US20240327382A1 (ALMAC DISCOVERY LIMITED, priority 2021, published 2024).

The target in this assay is T1, Full-length USP19 (Homo sapiens, UniProt O94966).
T1 construct: Full-length USP19 was purchased from Boston Biochem (E-576); purchased Boston Biochem E-576
T1 sequence (O94966 1-1318): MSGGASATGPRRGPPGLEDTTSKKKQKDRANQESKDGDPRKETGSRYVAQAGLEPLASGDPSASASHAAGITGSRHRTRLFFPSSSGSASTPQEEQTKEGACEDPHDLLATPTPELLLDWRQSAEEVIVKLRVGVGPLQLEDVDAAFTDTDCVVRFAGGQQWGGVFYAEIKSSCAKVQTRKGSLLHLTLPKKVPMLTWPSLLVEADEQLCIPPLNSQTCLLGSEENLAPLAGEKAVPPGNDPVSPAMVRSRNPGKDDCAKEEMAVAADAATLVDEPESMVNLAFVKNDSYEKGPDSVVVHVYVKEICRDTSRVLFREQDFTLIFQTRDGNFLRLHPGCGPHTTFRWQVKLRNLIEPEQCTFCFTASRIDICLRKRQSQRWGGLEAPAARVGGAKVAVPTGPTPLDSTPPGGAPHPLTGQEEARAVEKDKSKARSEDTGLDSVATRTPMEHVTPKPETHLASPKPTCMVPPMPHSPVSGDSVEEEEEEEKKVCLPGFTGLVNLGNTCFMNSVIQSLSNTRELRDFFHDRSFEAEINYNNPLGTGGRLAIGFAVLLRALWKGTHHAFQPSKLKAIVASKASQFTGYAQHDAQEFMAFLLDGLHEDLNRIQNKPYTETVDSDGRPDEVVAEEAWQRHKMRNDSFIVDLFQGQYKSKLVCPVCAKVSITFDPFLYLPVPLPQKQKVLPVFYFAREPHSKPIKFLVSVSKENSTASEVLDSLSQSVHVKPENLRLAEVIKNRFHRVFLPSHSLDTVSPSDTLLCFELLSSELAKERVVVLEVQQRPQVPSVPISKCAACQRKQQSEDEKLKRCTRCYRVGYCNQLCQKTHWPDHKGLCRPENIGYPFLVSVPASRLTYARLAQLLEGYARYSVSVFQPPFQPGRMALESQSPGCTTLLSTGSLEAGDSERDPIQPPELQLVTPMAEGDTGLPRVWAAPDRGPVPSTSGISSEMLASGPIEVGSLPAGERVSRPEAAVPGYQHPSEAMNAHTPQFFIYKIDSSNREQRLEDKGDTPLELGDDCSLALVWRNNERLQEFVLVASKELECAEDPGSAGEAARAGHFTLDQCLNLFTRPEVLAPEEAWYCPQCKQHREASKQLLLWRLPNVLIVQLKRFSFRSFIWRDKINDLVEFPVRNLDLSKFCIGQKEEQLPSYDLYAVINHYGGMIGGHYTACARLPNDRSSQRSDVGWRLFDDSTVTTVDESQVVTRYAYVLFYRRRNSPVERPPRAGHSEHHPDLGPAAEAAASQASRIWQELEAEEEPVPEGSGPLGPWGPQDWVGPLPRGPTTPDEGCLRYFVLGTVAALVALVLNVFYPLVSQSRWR
Briefly: USP19 fluorescence polarisation (FP) assay, Ubiquitin-Lys-TAMRA substrate. The class given is biochemical. To be noted: average of at least two duplicate experiments. The essentials: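 Full-length human USP19 (added at 2.5 nM) was preincubated 30 min at RT with inhibitor (serial dilutions 200 μM to 2 μM) in 50 mM HEPES pH 7.4, 150 mM NaCl, 5 mM DTT, 0.05% BSA, 0.05% CHAPS. Ubiquitin-Lys-TAMRA isopeptide substrate (added at 500 nM) started the reaction, and FP (Ex 530/Em 575 nm) was read every 15 min over 90 min. IC50 came from non-linear regression of signal normalised to no-compound control, averaged over at least two duplicate experiments.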
Background: Polarisation of emitted light reports the rotation of a fluorescent probe.
On to `CC(C)N[C@@H]1CCN(C(=O)N2CC[C@@H](Cn3cnc4ccc(F)cc4c3=O)C3(CCCC3)C2)[C@H](c2cc(F)ccc2F)C1` [Example 189, 3-(((R)-7-((2S,4R)-2-(2,5-Difluorophenyl)-4-(isopropylamino)piperidine-1-carbonyl)-7-azaspiro[4.5]decan-10-yl)methyl)-6-fluoroquinazolin-4(3H)-one], for which the half-inhibitory concentration (IC50) (commonly the concentration needed to halve the response being measured) is < 10 nM. The figure for `CN[C@@H]1CCN(C(=O)N2CC[C@@H](Cn3ccc(-c4ccccc4OC)cc3=O)C3(CCCC3)C2)[C@H](c2cc(F)cc(F)c2)C1` [Example 126, 1-(((R)-7-((2S,4R)-2-(3,5-Difluorophenyl)-4-(methylamino)piperidine-1-carbonyl)-7-azaspiro[4.5]decan-10-yl)methyl)-4-(2-methoxyphenyl)pyridin-2(1H)-one] is < 10 nM; for `CN[C@@H]1CCN(C(=O)N2CC[C@@H](Cn3cnc(-c4ccccc4C)cc3=O)C3(CCCC3)C2)[C@H](c2cccc(F)c2F)C1` [Example 136, 3-(((R)-7-((2S,4R)-2-(2,3-Difluorophenyl)-4-(methylamino)piperidine-1-carbonyl)-7-azaspiro[4.5]decan-10-yl)methyl)-6-(0-tolyl)pyrimidin-4(3H)-one] it is < 10 nM; for `C[C@@]1(O)CCN(C(=O)N2CC[C@@H](Cn3ccc(-c4ccccc4)cc3=O)C3(CCCC3)C2)[C@H](c2ccccc2)C1` [Example 52, 1-(((R)-7-((2S,4R)-4-Hydroxy-4-methyl-2-phenylpiperidine-1-carbonyl)-7-azaspiro[4.5]decan-10-yl)methyl)-4-phenylpyridin-2(1H)-one] it is 100 to 1000 nM. Consider `O=C(N1CCC(Cn2cnc(-c3ccccc3)cc2=O)CC1)N1CCNC[C@H]1c1ccccc1` [Example 1, (R)-6-Phenyl-3-((1-(2-phenylpiperazine-1-carbonyl)piperidin-4-yl)methyl)pyrimidin-4(3H)-one], for which the IC50 was 100 to 1000 nM.

For `CN[C@@H]1CCN(C(=O)N2CC[C@@H](Cn3cnc4ccc(F)cc4c3=O)C3(CCCC3)C2)[C@H](c2cc(F)cc(F)c2)C1` [Example 153, 3-(((R)-7-((2S,4R)-2-(3,5-Difluorophenyl)-4-(methylamino)piperidine-1-carbonyl)-7-azaspiro[4.5]decan-10-yl)methyl)-6-fluoroquinazolin-4(3H)-one], the IC50 was < 10 nM. As to `COc1ccccc1-c1cc(=O)n(C[C@@H]2CCN(C(=O)N3CC[C@@H](NCC(F)F)C[C@H]3c3cc(F)ccc3F)CC23CCCC3)cn1` [Example 134, 3-(((R)-7-((2S,4R)-4-((2,2-Difluoroethyl)amino)-2-(2,5-difluorophenyl)piperidine-1-carbonyl)-7-azaspiro[4.5]decan-10-yl)methyl)-6-(2-methoxyphenyl)pyrimidin-4(3H)-one], the IC50 was < 10 nM. The result for `Cc1ccccc1-c1cc(=O)n(C[C@@H]2CCN(C(=O)N3CC[C@@H](N)C[C@H]3c3cc(F)ccc3F)CC23CCCC3)cn1` [Example 82, 3-(((R)-7-((2S,4R)-4-Amino-2-(2,5-difluorophenyl)piperidine-1-carbonyl)-7-azaspiro[4.5]decan-10-yl)methyl)-6-(o-tolyl)pyrimidin-4(3H)-one] reads < 10 nM; that for `COc1ccccc1-c1cc(=O)n(C[C@]2(OC)CCN(C(=O)N3CCNC[C@H]3c3cc(F)ccc3F)CC23CCCC3)cn1` [Example 187, 3-(((S)-7-((R)-2-(2,5-Difluorophenyl)piperazine-1-carbonyl)-10-methoxy-7-azaspiro[4.5]decan-10-yl)methyl)-6-(2-methoxyphenyl)pyrimidin-4(3H)-one], < 10 nM. The result for `CN[C@@H]1CCN(C(=O)N2CC[C@@H](Cn3cnc(-c4ccccc4F)cc3=O)C3(CCCC3)C2)[C@H](c2cc(F)ccc2F)C1` [Example 145, 3-(((R)-7-((2S,4R)-2-(2,5-Difluorophenyl)-4-(methylamino)piperidine-1-carbonyl)-7-azaspiro[4.5]decan-10-yl)methyl)-6-(2-fluorophenyl)pyrimidin-4(3H)-one] reads < 10 nM; that for `CN[C@@H]1CCN(C(=O)N2CC[C@@H](Cn3ccc(Cl)cc3=O)C3(CCCC3)C2)[C@H](c2ccccc2)C1` [Example 83, 4-Chloro-1-(((R)-7-((2S,4R)-4-(methylamino)-2-phenylpiperidine-1-carbonyl)-7-azaspiro[4.5]decan-10-yl)methyl)pyridin-2(1H)-one], < 10 nM.

Take `CN[C@@H]1CCN(C(=O)N2CC[C@@H](Cn3ccc(-c4ccccc4)cc3=O)C3(CCCC3)C2)[C@H](c2ccc(F)cc2F)C1` [Example 95, 1-(((R)-7-((2S,4R)-2-(2,4-Difluorophenyl)-4-(methylamino)piperidine-1-carbonyl)-7-azaspiro[4.5]decan-10-yl)methyl)-4-phenylpyridin-2(1H)-one]: the IC50 is < 10 nM. The figure for `N[C@@H]1CCN(C(=O)N2CCC(CN3CCOCC3=O)C3(CCCC3)C2)[C@H](c2ccccc2)C1` (stereo partly drawn) [Example 41, 4-((7-((2S,4R)-4-Amino-2-phenylpiperidine-1-carbonyl)-7-azaspiro[4.5]decan-10-yl)methyl) morpholin-3-one] is 10 to 100 nM. The result for `CC1(C)CN(C(=O)N2CC[C@@H](N)C[C@H]2c2ccccc2)CCC1Cn1ccc(-c2ccccc2)cc1=O` (stereo partly drawn) [Example 21, 1-((1-((2S,4R)-4-Amino-2-phenylpiperidine-1-carbonyl)-3,3-dimethylpiperidin-4-yl)methyl)-4-phenylpyridin-2(1H)-one] reads < 10 nM; that for `CN[C@H]1C[C@@H](c2ccccc2)N(C(=O)N2CC[C@@H](Cn3cnc(-c4ccccc4)cc3=O)C3(CCCC3)C2)C1` [Example 90, 3-(((R)-7-((2S,4S)-4-(Methylamino)-2-phenylpyrrolidine-1-carbonyl)-7-azaspiro[4.5]decan-10-yl)methyl)-6-phenylpyrimidin-4(3H)-one], < 10 nM; that for `O=C(O)CN[C@@H]1CCN(C(=O)N2CC[C@@H](Cn3cnc(-c4ccccc4)cc3=O)C3(CCCC3)C2)[C@H](c2ccccc2)C1` [Example 106, Sodium ((2S,4R)-1-((R)-10-((6-Oxo-4-phenylpyrimidin-1(6H)-yl)methyl)-7-azaspiro[4.5]decane-7-carbonyl)-2-phenylpiperidin-4-yl)glycinate], < 10 nM.

For the compound `Cc1cc(=O)n(CC2CCN(C(=O)N3CC[C@@H](N)C[C@H]3c3ccccc3)CC23CCCC3)cn1` (stereo partly drawn) [Example 32, 3-((7-((2S,4R)-4-Amino-2-phenylpiperidine-1-carbonyl)-7-azaspiro[4.5]decan-10-yl)methyl)-6-methylpyrimidin-4(3H)-one], the IC50 was in the range of 10 to 100 nM. The result for `CN[C@@H]1CCN(C(=O)N2CC[C@@H](Cn3cccnc3=O)C3(CCCC3)C2)[C@H](c2ccc(F)cc2F)C1` [Example 128, 1-(((R)-7-((2S,4R)-2-(2,4-Difluorophenyl)-4-(methylamino)piperidine-1-carbonyl)-7-azaspiro[4.5]decan-10-yl)methyl)pyrimidin-2(1H)-one] reads 100 to 1000 nM; that for `CN[C@@H]1CCN(C(=O)N2CC[C@@H](Cn3cnc(-c4ccccc4OC)cc3=O)C3(CCCC3)C2)[C@H](c2ccccc2F)C1` [Example 103, 3-(((R)-7-((2S,4R)-2-(2-Fluorophenyl)-4-(methylamino)piperidine-1-carbonyl)-7-azaspiro[4.5]decan-10-yl)methyl)-6-(2-methoxyphenyl)pyrimidin-4(3H)-one], < 10 nM; that for `N[C@@H]1CCN(C(=O)N2CCC(Cn3ccc(C(F)F)cc3=O)C3(CCCC3)C2)[C@H](c2ccccc2)C1` (stereo partly drawn) [Example 38, 1-((7-((2S,4R)-4-Amino-2-phenylpiperidine-1-carbonyl)-7-azaspiro[4.5]decan-10-yl)methyl)-4-(difluoromethyl) pyridin-2(1H)-one], < 10 nM.
